Values quoted from earlier work as cited in patent US20190223486A1, “CATECHIN ABSORPTION ENHANCER FOR ENHANCING CATECHIN ABSORPTION IN SMALL INTESTINAL EPITHELIAL CELLS” (AMOREPACIFIC CORPORATION, priority 2016, published 2019).

Details: in vivo, po

share of a catechin intake absorbed by the intestines: less than 2%
Substance: catechin
